Where “and” joins values, the source holds several entries; their conditions need not be identical. Identical values can stand only once. Like-named read-outs stand apart in the source and are kept apart here. Ends that are not written are not given here.
Experiments:
Format in all cases: cell-based
E. coli ATCC 25922 = assay: Antibacterial assay, NCCLS M7-T2 microdilution (Example 15), MIC; conditions: Table XI; Mueller Hinton broth, 16-20 hours 37° C., 1-5×10^5 CFUs/ml
Procedure: (§1) The procedure for the following antibacterial assay is based upon the guidelines of the National Committee for Clinical Laboratory Standards, Document M7-T2, Volume 8, No. 8, 1988.
(§2) Stock solutions of the following Peptides (SEQ ID NO:4) and (SEQ ID NO:64) through (SEQ ID NO:68) in accordance with the present invention are prepared at a concentration of 512 μg/ml in sterile deionized distilled water and stored at -70° C.
(§3) The stock peptide solution was diluted in serial dilutions (1:2) down the wells of a microtiter plate so that the final concentrations of peptides in the wells were 0.25, 0.50, 1, 2, 4, 8, 16, 32, 64, 128, and 256 μg/ml. 1-5×10^5 CFUs/ml of either S. aureus ATCC 25923, E. coli ATCC 25922, or P. aeruginosa ATCC 27853 were added to the wells in full strength Mueller Hinton broth (BBL 11443) from a mid-log culture. The inoculum is standarized spectrophotometrically at 600 nm and is verified by colony counts. […] Minimal inhibitory concentration is defined as the lowest concentration of peptide which produces a clear well in the microtiter plate.
(§4) For purposes of explanation of Table XI below, S is the MIC of the peptide against S. aureus, P is the MIC of the peptide against P. aeruginosa, and E is the MIC of the peptide against E. coli.

P. aeruginosa ATCC 27853 = assay: as above; conditions: Table XI; Mueller Hinton broth, 16-20 hours 37° C., 1-5×10^5 CFUs/ml
Procedure: as §1, §2, §3, §4

S. aureus ATCC 25923 = assay: as above; conditions: Table XI; Mueller Hinton broth, 16-20 hours 37° C., 1-5×10^5 CFUs/ml
Procedure: as §1, §2, §3, §4

Escherichia coli [1] = conditions: Table I; 100 percent growth inhibition, 20 hours, 1.0×10^6 CFU/ml, LB medium
Procedure: (§5) For the following Examples 3-9, antimicrobial assays were carried out in 96-well tissue culture plates. Each well was incubated with a given microorganism (Escherichia coli, Staphylococcus epidermidis, or Pseudomonas aeruginosa) suspended in LB medium. Upon the addition of the parent peptide having the structural formula hereinabove described, or its substitution analogues, or of Peptide I (dissolved in 1 X PBS, pH 7.0) each well contained a final cell density of 1.0×10^6 colony forming units (CFU)/ml. The final peptide concentrations ranged from 1.5 μg/ml to greater than 100 μg/ml.
(§6) Addition of peptides to the wells was defined as time zero. At twenty hours, the plates were placed in a Titertek Multiskan apparatus and the O.D.620 determined. The plates as well as the initial innoculum were incubated at 37° C.
(§7) Five wells per plate contained media alone, while five others contained medium plus cells. These controls were used to eliminate the possibility of media contamination while providing a measure of uninhibited growth of the microorganisms.
(§8) The degree of peptide activity was determined by comparing the substitution analogues with uninhibited growth of the control cells over a twenty-hour period.
(§9) as hereinabove described and analogues thereof wherein a methionine sulfoxide residue was substituted for various amino acid residues of the parent peptide were prepared as hereinabove described in Example 1 and tested for minimum inhibitory concentration with respect to E. coli, P. aeruginosa, and S. epidermidis at a concentration given in μg/ml, and for percent hemolysis of human red blood cells as hereinabove described in Example 2. The minimum inhibitory concentration and percent hemolysis (at a concentration of 100 μg/ml) are listed below in Table I. As used herein, the heading "Amino Acid Residue Substituted" refers to the number of the amino acid residue in the peptide which is substituted with a desired amino acid residue. All other residues remain the same as that of the normal peptide sequence. The term "Minimum Inhibitory Concentration" (MIC) as used herein indicates the minimum concentration of peptide in μg/ml needed to achieve 100 percent effective growth inhibition of the organism.

Pseudomonas aeruginosa [2] = conditions: Table I; 100 percent growth inhibition, 20 hours, 1.0×10^6 CFU/ml, LB medium
Procedure: as §5, §6, §7, §8, §9

[3] = system: Staphylococcus epidermidis; assay: Antimicrobial assay in 96-well plates, LB medium (Example 2), MIC; conditions: Table I, 100 percent growth inhibition, 20 hours, 1.0×10^6 CFU/ml
Escherichia coli [4] = assay: Antimicrobial assay for deletion analogues (Example 10), MIC; conditions: Table VII; 1.3×10^5 CFU/ml, 20 hours, LB medium
Procedure: (§10) For the deletion analogues of the parent peptide further described in Examples 11 and 12, antimicrobial assays were carried out in 96-well tissue culture plates. Each well was incubated with a given microorganism (Escherichia coli, Staphylococcus epidermidis, Pseudomonas aeruginosa, or Staphylococcus aureus) suspended in LB medium. Upon addition of the parent peptide or its deletion analogues (dissolved in 1×PBS<pH7.0), each well contained a final cell density of 1.3×10^5 colony forming units (CFU)/ml of E. coli, or 3.5×10^5 CFU/ml P.aeruginosa, or 3.9×10^5 CFU/ml S. Aureus or 3.0×10^5 CFU/ml S. epidermidis. The final peptide concentrations ranged from 1.5 μg/ml to greater than 100 μg/ml. Addition of peptide to the wells was defined as time zero. At twenty hours, the plates were placed in a Titertek Multiskan apparatus and the O.D. 620 determined. The plates as well as the initial innoculum were incubated at 37° C. Five wells per plate contained medium alone, whereas five others contained medium plus cells. These controls were used to eliminate the possibility of medium contamination, while providing a measure of uninhibited growth of the microorganisms. The degree of peptide activity was determined by comparing the deletion analogues with uninhibited growth of the control cells over a twenty-hour period. The effective growth inhibitation of the deletion analogues is listed in the examples and tables below.

Pseudomonas aeruginosa [5] = assay: as above; conditions: Table VII; 3.5×10^5 CFU/ml, 20 hours, LB medium
Procedure: as §10

Staphylococcus aureus = assay: as above; conditions: Table VII; 3.9×10^5 CFU/ml, 20 hours, LB medium
Procedure: as §10

[6] = system: Staphylococcus epidermidis; assay: as above; conditions: Table VII; 3.0×10^5 CFU/ml, 20 hours, LB medium
Procedure: as §10

Substance	MIC E (E. coli) (E. coli ATCC 25922) [µg/mL]	MIC P (P. aeruginosa) (P. aeruginosa ATCC 27853)	MIC S (S. aureus) (S. aureus ATCC 25923) [µg/mL]	Minimum Inhibitory Concentration E. coli (Escherichia coli [1]) [µg/mL]	Minimum Inhibitory Concentration P. Aeruginosa (Pseudomonas aeruginosa [2]) [µg/mL]	Minimum Inhibitory Concentration S. epidermidis [3] [µg/mL]	Minimum Inhibitory Concentration E. coli (Escherichia coli [4]) [µg/mL]	Minimum Inhibitory Concentration P. Aeruginosa (Pseudomonas aeruginosa [5]) [µg/mL]	Minimum Inhibitory Concentration S. aureus (Staphylococcus aureus) [µg/mL]	Minimum Inhibitory Concentration S. epidermidis [6] [µg/mL]
LLKKLKKLLKKLLKLL-NH2 [(SEQ ID NO: 4) --NH2]	32	64 µg/mL	32	–	–	–	–	–	–	–
Ac-LKKLLKKLKKLLKKL-NH2 [X-(SEQ ID NO: 66) --NH2]	8	16 µg/mL	8	–	–	–	–	–	–	–
Ac-LLKKLKKLLKKLLKLL-NH2 [X-(SEQ ID NO: 4) --NH2]	32	64 µg/mL	32	–	–	–	–	–	–	–
Ac-KKLLKKLKKLLKKL-NH2 [X-(SEQ ID NO: 65) --NH2]	32	16 µg/mL and 32 µg/mL	16	–	–	–	–	–	–	–
Ac-LKLLKKLLKKGKKLLKKL-NH2 [X-(SEQ ID NO: 68) --NH2]	16	8 µg/mL	8	–	–	–	–	–	–	–
Ac-LKLLKKLLKKLKKLLKKL-NH2 [None (parent)]	–	–	–	10	75	2.5	10	75	128	2.5

Reference: patent US5294605A, “Amphiphilic peptide compositions and analogues thereof” (The Scripps Research Institute, priority 1991, dated 1994)
